Experiments:
[1] = tested on: MDA-MB-231 cells; assay: Mitotic entry assay (phospho-histone H3 Ser10, nocodazole trap, flow cytometry); assay type: cell-based, human
From the text: Of these, the G2/M checkpoint involves ATM and ATR in collaboration, whereas the S/M checkpoint is mediated solely by ATR. To maintain genetic integrity, ATR can prevent premature mitotic entry in the event of incomplete DNA replication or unrepaired DNA damage. In order to evaluate the effect of benzopyran-4-one derivatives on these ATR-associated DNA damage checkpoints, we observed the effect of benzopyran-4-one derivatives on mitotic entry following hydroxyurea or cisplatin treatment.
(§1) DNA replication was measured using a Click-it EdU assay kit, which is based on incorporation of the thymidine analogue 5-ethynyl-2′-deoxyuridine (EdU) into DNA during replication (Invitrogen). Then, 10 μM EdU was added to the cell culture medium 30 min before the cells were harvested and fixed in 4% paraformaldehyde. After cycloaddition, EdU was detected with Alexa Fluor 647 using click reaction catalyzed by Cu (II), and the DNA content was stained by CellCycle 405-blue. To assay the mitotic entry, cells were treated with the indicated drugs and trapped in 70 nM nocodazole for 16 h, and antibodies against phospho-histone H3 Ser10 and PI were used to stain the mitotic cells and DNA content, respectively. An FITC Annexin V apoptosis detection kit was used to characterize the phenotype of cell death based on PI and Annexin V double staining (BD Pharmingen, San Diego, Calif.). Fluorescence-labeled cells were subsequently analyzed by the BD LSR II flow cytometer with a suitable selection of excitation and emission wavelengths. The percentages of different fluorescent cells were analyzed using WinMDI Ver. 2.9.

[2] = tested on: ATM-mediated Chk2 phosphorylation; assay: Immunoblot of DNA damage-induced Chk2 phosphorylation / ATM autophosphorylation; assay type: cell-based, human; details: after H2O2 damage
From the text: (§2) We hypothesized that genes with functions associated with DNA damage checkpoints and/or DNA repair might be targeted by benzopyran-4-one derivatives. To test this hypothesis, we assessed the effects of benzopyran-4-one derivatives on DDR induced by H2O2. […] In response to DNA double-strand breaks (DSBs), FANCD2 is known to be monoubiquitinated on K561 (FANCD2-Ub) in an ATR-dependent manner to stimulate repair (Andreassen P R, et al. Genes Dev 2004).
(§3) To elucidate the specificity of the benzopyran-4-one derivatives inhibition on ATR-mediated signaling, we compared the change between cells treated with benzopyran-4-one derivatives or the ATM-specific inhibitor KU55933 before the induction of DDR.
(§4) MDA-MB-231 (breast adenocarcinoma; ATCC HTB-26, BCRC 60425) and A549 (lung adenocarcinoma; ATCC CCL-185, BCRC 60074) human cell lines were purchased from Bioresource Collection and Research Center (BCRC, Hsinchu, Taiwan), and were authenticated by American Type Culture Collection (ATCC, Manassas, Va.). U2OS (osteosarcoma), HeLa (cervical adenocarcinoma), and HEK 293T (embryonic kidney cells) human cell lines were provided by Dr. Sheau-Yann Shieh (Institute of Molecular Biology, Academia Sinica, Taipei, Taiwan). Cells were maintained in Dulbecco's modified Eagle's medium (DMEM, Sigma-Aldrich) supplemented with 10% fetal bovine serum (FBS) (Gibco). […] For UV irradiation treatment, the cells were irradiated for 10 J/m^2 by a cross-linker (UVP) 1 h prior to analysis.
(§5) Cell lysate preparations, gel electrophoresis, and immunoblotting were performed as previously described (23). The binding of primary antibodies were detected by horseradish peroxidase-coupled secondary antibodies (Jackson ImmunoResearch) followed by enhanced chemiluminescence (ECL) (Millipore). The images of non-saturated bands were captured using a luminescent image analyzer (LAS-4000 mini; Fujifilm). The antibodies used in this study are listed in supplementary materials.

[3] = tested on: ATR-dependent Chk1 phosphorylation; assay: Immunoblot of DNA damage-induced Chk1 phosphorylation; assay type: cell-based, human; details: after H2O2 damage
From the text: as §2, §3, §4, §5

[4] = tested on: DNA replication; assay: EdU incorporation assay of DNA replication; assay type: cell-based; details: 10 μM
Protocol: as §1, with “5-ethynyl-2'-deoxyuridine” for “5-ethynyl-2′-deoxyuridine”, “To assay the mitotic entry, cells were treated with the indicated drugs and trapped in 70 nM nocodazole for 16 h, and antibodies against phospho-histone H3 Ser10 and PI were used to stain the mitotic cells and DNA content, respectively.” left out

[5] = tested on: CHO cells; assay: In vitro chromosome aberration test; assay type: cell-based, Chinese Hamster; details: 2.00 μM
Protocol: To test this hypothesis, we investigated the cytogenetic effect of Protoapigenone (I-1) on CHO cells (FIG. 1).
In brief, 5×10^5 Chinese Hamster Ovary (CHO) cells were seeded in 60-mm dishes 1 d before the experiment. Protoapigenone (I-1)-induced structural chromosomal changes after 20 h were compared with that of the cells cultured in 2 μM mitomycin C. At 18 h after Protoapigenone (I-1), 0.1 μg/mL colchicine was added for 2 h, and metaphase cells were collected by shaking them off the dishes. Mitotic cells were treated with 0.5% KCl for 10 min and fixed with a 3:1 mixture of methanol: glacial acetic acid. The cells were then spread on slides for chromosome staining with 5% Giemsa solution. We then analyzed the chromosome structure of 200 well-spread metaphase cells (100 metaphase cells/experiment) under a 100× oil immersion objective.

[6] = DNA-damaging agent alone (Control group column)

## O=c1cc(-c2cccc3c2Sc2ccccc2S3)oc(N2CCOCC2)c1 [KU55933]
[1]; cisplatin-treated cells
  Percentage of mitotic cells in cisplatin-treated cells (G2/M checkpoint), in words: increased the percentage of mitotic cells
[1]; compound alone (Control group, no DNA-damaging agent)
  The percentage of mitotic cells: 20.29 ± 1.48%
[1]; compound with Cisplatin (G2/M checkpoint)
  The percentage of mitotic cells: 9.70 ± 0.25%
[1]; compound with Hydroxyurea (S/M checkpoint)
  The percentage of mitotic cells: 11.19 ± 0.76%
[2]
  ATM-mediated Chk2 phosphorylation: strongly inhibited
[3]
  Effect on ATR-mediated Chk1 phosphorylation: small
[4]
  Percentage of EdU incorporation compared with control group: not

## NC(=O)NO [Hydroxyurea]
[1]; [6]
  The percentage of mitotic cells: 4.46 ± 0.67%

## N.N.[Cl][Pt][Cl] [Cisplatin]
[1]; [6]
  The percentage of mitotic cells: 5.35 ± 0.07%

## CO[C@@]12[C@H](COC(N)=O)C3=C(C(=O)C(C)=C(N)C3=O)N1C[C@@H]1N[C@@H]12 [Mitomycin C, reference compound]
[5]; 200 cells per treatment
  Chromatid break (No.): 2 No.
  Chromatid deletion: 3 No.
  Complex rerrangement: 2 No.
  Dicentric: 1 No.
  Polyploid: 0 No.
  Pulverized cell: 5 No.
  Quadriradial: 29 No.
  Ring: 0 No.
  Triradial: 42 No.
[5]; * significant vs. control by t-test
  Average aberrant metaphases (%): 42.0 * %

— US11413267B2, “Methods and compositions for inhibition of ATR and FANCD2 activation” (priority 2012, dated 2022)
